Source: publication PMC6711809 (Bioorganic & medicinal chemistry letters, 2019)

Target: HIV-1 protease (Human immunodeficiency virus type 1 group M subtype B, UniProt P04585)
Assay: HIV-1 protease inhibitory activity
Type: biochemical
Conditions: for fold better inhibitory activity than 3i: compared with 3i

COCCOc1c(N[C@@H](Cc2ccccc2)[C@H](O)CN(CC(C)C)S(=O)(=O)c2ccc(OC)cc2)c(=O)c1=O [Inhibitor 3b]
loss of protease inhibitory activity relative to 3a (compared with 3a): over 4 fold

COc1ccc(S(=O)(=O)N(CC(C)C)C[C@@H](O)[C@H](Cc2ccccc2)Nc2c(N(C)[C@H]3CCOC3)c(=O)c2=O)cc1 [Inhibitor 3g]
potency enhancement over compound 3e (compared with 3e): 15 fold

COc1ccc(S(=O)(=O)N(CC(C)C)C[C@@H](O)[C@H](Cc2ccccc2)Nc2c(N(C)[C@@H]3CCOC3)c(=O)c2=O)cc1 [Inhibitor 3h]
fold more potent than 3g (compared with 3g): over 775 fold

COc1ccc(S(=O)(=O)N(CC(C)C)C[C@@H](O)[C@H](Cc2ccccc2)Nc2c(N[C@@H]3CO[C@@H]4OCC[C@@H]43)c(=O)c2=O)cc1 [Inhibitor 3j]
fold better inhibitory activity than 3i: ~10 fold

COc1ccc(S(=O)(=O)N(CC(C)C)C[C@@H](O)[C@H](Cc2ccccc2)Nc2c(N(C)[C@H]3CO[C@H]4OCC[C@H]43)c(=O)c2=O)cc1 [Inhibitor 3k]
fold better inhibitory activity than 3i: over 10 fold
